Activity calls are given as the source filed them.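 The calls were made as follows: active = z-score above 3 at 5 µM with at least 500 cells counted in the well; inconclusive = wells under 500 cells, flagged as cytotoxic or low count; inactive = the rest.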

Our source for the EC50 values is PubChem BioAssay AID1625 (Sanford-Burnham Center for Chemical Genomics, 2009).

This experiment deals with MIN6 insulin promoter-GFP reporter, high-content imaging. The experiment can be described thus: up-regulation of insulin promoter-GFP reporter – imaging, high-content screening, mouse beta cells (AID 1625).
As to `Oc1c(C=NCc2ccc(F)cc2)[nH]c2ccc(Br)c(Cl)c12`, the EC50 (commonly the concentration at which the effect is half-maximal) is > 16 µM (inactive). Regarding `COc1cccc(C2C3CN(C)CC=C3C(C#N)=C(N)C2(C#N)C#N)c1OC` (stereo not drawn), the EC50 was 12.3 µM (inactive). As to `CN1CCN(C2=CC3=CC(=C(C#N)C#N)CCC3CC2)CC1` (stereo not drawn), the concentration for a half-maximal effect (EC50) was 3.41 µM.

As to `Cc1ccnc(N/C=C(\C#N)c2nc(-c3cccc(Br)c3)cs2)c1`, the EC50 is > 16 µM (inactive). With `C=CCN1C(=O)c2cccc3c(N4CCCCC4)ccc(c23)C1=O`, the EC50 was 5.42 µM. On to `CC[n+]1c(/C=C/C=C/N(C(C)=O)c2ccccc2)sc2cc(OC)ccc21`, for which the EC50 was 0.887 µM.

In the case of `CCN(CC)c1ccc2cc(-c3nnc(-c4ccccc4)o3)c(=O)oc2c1`, the concentration giving a half-maximal response (EC50) is 2.88 µM. Regarding `CN(C)c1ccc(/C=C/C(O)=C2/C(=O)N(C)C3(C)CC2c2ccccc2O3)cc1` (stereo not drawn), the EC50 was > 16 µM (inactive). As to `COc1ccc(NC(=O)/C(C#N)=C\c2ccc(N3CCOCC3)o2)cc1`, the concentration giving a half-maximal response (EC50) is 9.14 µM. For the molecule `CCCN1C=CC(=C/C=C(\C#N)C(=O)OCC)C=C1`, the EC50 was > 16 µM (inactive). `CN1/C(=C\C=C2/C(=O)Oc3ccccc3C2=O)C(C)(C)c2ccccc21`: the EC50 was 2.58 µM. As for `CN1CC=C2C(C#N)=C(N)C(C#N)(C#N)[C@H](c3cccc(Cl)c3)C2C1` (stereo partly drawn), the EC50 is 8.14 µM.

With `Nc1c(C(=O)N/N=C/c2cccnc2)oc2nc(-c3ccco3)cc(-c3ccco3)c12`, the EC50 is > 16 µM (inactive). On to `Cc1c2ccccc2nc2c(F)c(NC(C)C)c(F)c(F)c12`, for which the EC50 is > 16 µM (inactive). The same measure for `CC(=O)Nc1ccc(N=Cc2c(O)c(C(=O)Nc3ccccc3)cc3ccccc23)cc1`: > 16 µM (inactive); for `N#C/C(=C\c1ccc(N2CCCCC2)o1)C(=O)Nc1cccc(Br)c1`: 0.605 µM; for `CCCN1C(=O)/C(=C/C=C2\N(CC)c3ccccc3C2(C)C)SC1=S`: > 16 µM (inactive). In the case of `O=[N+]([O-])c1ccc(N/N=C/c2ccc[nH]2)cc1`, the EC50 is > 16 µM (inactive).

In the case of `Nc1c(C(=O)c2cccs2)sc2nsc(SCCN3CCCCC3)c12`, the EC50 is 9.62 µM. For the molecule `COc1cc2c3nnc(-c4ccccc4)c-3cn(Cc3ccccc3F)c2cc1OC`, the EC50 was 3.09 µM.

For the molecule `CN(C)c1ccc(/C=C2\SC(=S)N(Nc3ncc(C(F)(F)F)cc3Cl)C2=O)cc1`, the concentration for a half-maximal effect (EC50) is 2.55 µM. On to `Cc1ccc(/C=[N+](\[O-])c2ccc(N(C)C)cc2)c2nsnc12`, for which the EC50 was > 16 µM (inactive). Consider `CN(C)c1ccc(/C=C2\SC(=O)N(CC(O)Cn3c4ccccc4c4ccccc43)C2=O)cc1` (stereo not drawn), for which the EC50 was > 16 µM (inactive). In the case of `CCCN1C=CC(=CC=C(C#N)C#N)C=C1` it was 10.4 µM (inactive); in that of `COc1ccc(C(=O)/C=C/c2ccc(N(C)C)cc2)c(OC)c1`, 6.31 µM. In the case of `CCc1cccc2cc3c(N)c(C(=O)Nc4ccc(S(=O)(=O)N5CCCC5)cc4)sc3nc12` it was 10.2 µM (inactive); in that of `CCCN1CC=C2C(C#N)=C(N)C(C#N)(C#N)C(c3cccc(OC)c3OC)C2C1` (stereo not drawn), 7.34 µM; in that of `CC(C)/C=C1\CC/C(=C\c2ccc(N(C)C)cc2)C1=O`, > 16 µM (inactive). In the case of `CC(=O)Nc1sc(/C(C#N)=C/c2ccc(Cl)c(Cl)c2)nc1-c1ccc(C)cc1` it was > 16 µM (inactive); in that of `CCCCNc1ccc2c3c(cccc13)C(=O)N(CCCC)C2=O`, 1.69 µM; in that of `CCN(CC)c1ccc2cc(/C(N)=N/NC(=O)c3cccs3)c(=O)oc2c1`, 13.8 µM (inactive). On to `Cc1ccc(/C(C#N)=C\c2ccc(N3CCOCC3)o2)cc1`, for which the EC50 was > 16 µM (inactive). The same measure for `CC(C)OC(=O)CN1C(=O)S/C(=C/c2ccc(N3CCCCC3)o2)C1=O`: 1.7 µM; for `CCCCCCN1C=CC(=C/C=C(\C#N)C(=O)OCC)C=C1`: 11 µM (inactive). The same measure for `O=[N+]([O-])c1ccc(N/N=C/c2cn(Cc3ccc(F)cc3)c3ccccc23)nc1`: > 16 µM (inactive). As for `N#Cc1c(NC(=S)NC(=O)c2ccccc2)sc2c1CCN(CCc1ccccc1)C2`, the EC50 is 7.1 µM.

As for `N#C/C(=C/c1ccc(-c2ccccc2)o1)c1nc(-c2cccs2)cs1`, the EC50 was 0.98 µM. Consider `Cc1cc(C)cc(N=Cc2[nH]c3ccc(Br)c(Cl)c3c2O)c1`, for which the EC50 is 3.42 µM.

Take `Cc1csc(NC(=O)c2sc3nc(-c4cccs4)ccc3c2N)n1`: the EC50 was > 16 µM (inactive).

As to `CN1CC=C2C(C#N)=C(N)C(C#N)(C#N)C(c3ccncc3)C2C1` (stereo not drawn), the EC50 was > 16 µM (inactive). In the case of `CCOC(=O)c1nn(-c2ccc(Cl)cc2Cl)c(=N)c(C#N)c1C`, the EC50 is 7.31 µM. Take `Cc1c(N=C2N=C(NC(=O)c3cccs3)c3ccccc32)c(=O)n(-c2ccccc2)n1C`: the EC50 is 13.9 µM (inactive).

As for `COc1ccc(/C=C2\CC/C(=C\c3ccc(OC)cc3OC)C2=O)c(OC)c1`, the EC50 is > 16 µM (inactive). The same measure for `CN1CCS/C1=C/C=C1/SC(=S)N(Cc2ccccc2)C1=O`: > 16 µM (inactive); for `O=[N+]([O-])c1ccc(-c2ccc(/C=N/Nc3nc(NCc4ccccc4)nc(N4CCOCC4)n3)o2)cc1`: > 16 µM (inactive). Take `CN1CC=C2C(C#N)=C(N)C(C#N)(C#N)C(c3cccc(Cl)c3Cl)C2C1` (stereo not drawn): the EC50 was 11.9 µM (inactive). On to `CN1/C(=C\C=C2C(=O)NC(=S)NC2=O)C(C)(C)c2ccccc21`, for which the EC50 was 3.89 µM. In the case of `CC(=O)c1sc2nc(-c3cccs3)cc(C(F)(F)F)c2c1N` it was 7.56 µM. Consider `COc1ccc(/C(O)=C/c2nc3ccc(C(=O)NCCc4cccc(C)c4)cc3[nH]c2=O)cc1OC`, for which the EC50 was > 16 µM (inactive). The same measure for `COc1cccc2sc(NNC(=O)C3=COCCO3)nc12`: > 16 µM (inactive); for `Cc1cccc(NC(=O)/C=C/c2ccc([N+](=O)[O-])s2)c1`: > 16 µM (inactive). Regarding `CN(C)c1ccc(/C=C2\N=C(c3ccc(Cl)c([N+](=O)[O-])c3)NC2=O)cc1`, the EC50 is > 16 µM (inactive).

Turning to `Cc1ccc(N2C(=O)c3cccc4c(N5CCN(C)CC5)ccc(c34)C2=O)c2cccnc12`, the EC50 was 10.3 µM (inactive). With `Cc1oc(C)c2c(=O)ccc3c(c12)OC(N)=C(C#N)C3c1ccccc1` (stereo not drawn), the EC50 is > 16 µM (inactive). Turning to `CCN(CC)c1ccc2cc(-c3nc(-c4ccc(OC)cc4)cs3)c(=O)oc2c1`, the concentration for a half-maximal effect (EC50) was less than 0.25 µM. In the case of `CCN(CC)c1ccc(/C=C(/C#N)c2nc3ccc(C)cc3[nH]2)c(OC(C)C)c1`, the 50% effective concentration (EC50) was 2.87 µM. Take `CC(C)N1CC=C2C(C#N)=C(N)C(C#N)(C#N)C(c3ccccc3)C2C1` (stereo not drawn): the 50% effective concentration (EC50) was 6 µM. Turning to `N#C/C(=C\N1CCN(Cc2ccc3c(c2)OCO3)CC1)c1nc2ccccc2s1`, the EC50 was > 16 µM (inactive).

`CCN1CCN(C2=CC3=CC(=C(C#N)C#N)CCC3CC2)CC1` (stereo not drawn): the concentration for a half-maximal effect (EC50) was 2.79 µM. Consider `CCN1C=CC2=C(C#N)C(N)C(C#N)(C#N)C(c3ccccc3C(F)(F)F)C2C1` (stereo not drawn), for which the concentration for a half-maximal effect (EC50) is 4.63 µM. Take `N#C/C(=C\c1ccc(N2CCOCC2)o1)c1ccccc1`: the EC50 is > 16 µM (inactive). In the case of `O=C(/C=C/c1cn(CC(O)CN2CCCCCC2)c2ccccc12)c1cccs1` (stereo not drawn) it was > 16 µM (inactive). As to `CCCCCn1nc(-c2ccccc2)c2nc3ccccc3nc21`, the EC50 is 8.72 µM. For the molecule `Cc1cc(N2CCCC2)ccc1/C=C1/C(=O)N(C)C(=S)N1C`, the EC50 was > 16 µM (inactive). In the case of `CC(=O)Cc1cc(O)c2ccccc2c1OC(=O)c1ccc(Br)cc1`, the EC50 was > 16 µM (inactive). As for `Cc1cc(N2CCCC2)ccc1/C=C1\NC(=S)N(C)C1=O`, the EC50 is 9.87 µM. As for `Cc1cc(/C=C2/C(=O)N(C)C(=S)N2C)ccc1N1CCCC1`, the EC50 is 1.61 µM. With `CCN1CC=C2C(C#N)=C(N)C(C#N)(C#N)[C@H](c3cccc(OC)c3OC)[C@H]2C1`, the EC50 is 3.78 µM. Regarding `CN1/C(=C\C=C(/C#N)C(=O)Nc2ccccc2F)C(C)(C)c2ccccc21`, the EC50 was > 16 µM (inactive).

With `CCOC(=O)/C(=C\C=C1/Sc2cc(OCC)c(OCC)cc2N1CC)C(C)=O`, the EC50 is 6.72 µM. As for `N#Cc1ccc(-c2ccccc2)nc1SCC(=O)c1cccc(Cl)c1`, the EC50 is > 16 µM (inactive). Turning to `O=S(=O)([O-])CCC[n+]1c(/C=C\Nc2ccccc2)oc2ccc(-c3ccccc3)cc21`, the 50% effective concentration (EC50) was 3.34 µM. As to `Cc1cccc(N=Cc2[nH]c3ccc(Br)c(Cl)c3c2O)c1`, the EC50 was 4.86 µM. Turning to `COCCNC(=S)N/N=C/c1ccc(-c2ccc([N+](=O)[O-])cc2)o1`, the EC50 is > 16 µM (inactive).

In the case of `O=C1c2cccc3c(N4CCCCC4)ccc(c23)C(=O)N1c1ccccc1O`, the EC50 was > 16 µM (inactive). On to `COc1ccc(CN2C(=O)/C(=C/c3ccc(-c4ccc(Cl)c(C(=O)O)c4)o3)SC2=S)cc1`, for which the EC50 is 15.4 µM (inactive). Consider `CCCCN1C(=O)/C(=C/C=C2/CC(C)(C)CN2C)SC1=S`, for which the 50% effective concentration (EC50) was 6.8 µM. As for `COc1cc2c3nnc(-c4ccc(F)cc4)c-3cn(Cc3ccccc3)c2cc1OC`, the EC50 was 2.89 µM. Take `O=C1S/C(=C\c2ccc(N3CCOCC3)o2)C(=O)N1Cc1ccc(F)cc1`: the EC50 is > 16 µM (inactive). `Nc1c(C(=O)Nc2nccs2)sc2nc(-c3cccs3)cc(C(F)(F)F)c12`: the EC50 was 5.91 µM. The same measure for `CC(C)NC(=O)/C(C#N)=C/c1ccc(N(C)C)o1`: 8.07 µM; for `O=[N+]([O-])c1ccc(N/N=C/c2sc(N3CCOCC3)nc2-c2ccccc2)c(S(=O)(=O)Nc2ccccc2Cl)c1`: > 16 µM (inactive). For the molecule `CN(C)c1ccc(/C=C2\C(=N)N3C(=NC2=O)Sc2cc(S(C)(=O)=O)ccc23)cc1`, the EC50 was > 16 µM (inactive). Regarding `CCCN1CC=C2C(C#N)=C(N)C(C#N)(C#N)C(c3cc(OC)ccc3OC)C2C1` (stereo not drawn), the EC50 was 5.05 µM.

For the molecule `N#C/C(=C/c1ccc(N2CCCCC2)o1)C(=O)Nc1ccc2ccccc2c1`, the concentration for a half-maximal effect (EC50) is 0.564 µM. Take `Cc1ccc(CNc2ccc3c(c2)OCO3)c(C)c1`: the EC50 is > 16 µM (inactive). On to `CCOC(=O)N1CCN(S(=O)(=O)c2ccc3c(c2)oc(=O)n3C)CC1`, for which the EC50 is > 16 µM (inactive). Turning to `CN1C2CCC1/C(=C/c1cccn1C)C(=O)/C2=C\c1cccn1C`, the EC50 was > 16 µM (inactive).
